This is an account of results in paper PMC4305287, “Two Novel α7 Nicotinic Acetylcholine Receptor Ligands: In Vitro Properties and Their Efficacy in Collagen-Induced Arthritis in Mice” (PLoS ONE, 2015).

In data set [1] the test system is collagen-induced arthritis. Nature of the data set: collagen-induced arthritis in DBA/1 mice. To be noted: for disease incidence and onset: 5 mg/kg oral daily day 20-34. The protocol: Collagen-induced arthritis was induced and evaluated as previously described. The severity of arthritis was assessed using an established semiquantitative scoring system (0–4; 0 = normal, 1 = swelling in 1 joint, 2 = swelling in >1 joint, 3 = swelling in the entire paw, and 4 = deformity and/or ankylosis. The cumulative score for all 4 paws of each mouse was used to represent overall disease severity and progression. Hind paw ankle joint thickness was measured using a caliper For the evaluation of incidence, mice were considered to have arthritis if the arthritis score increased by at least 1 point for 2 or more following days.
In study 1, we evaluated the role of the two novel α7nAChR-specific modulators in CIA. The receptors were stimulated by oral gavage of PMP-311 (5 mg/kg; n = 15) or PMP-072 (5 mg/kg; n = 17). The compounds were administered once a day from day 20 until the end of the experiment (day 34). Control mice received saline. In study 2, we evaluated the anti-inflammatory effects of different dosages of the α7nAChR-specific agonists. PMP-311 (2 or 10 mg/kg; n = 15) and PMP-072 (10 or 20 mg/kg; n = 15) were administered in the same way as in study 1. In both studies, mice were inspected daily for signs of arthritis and thickness of hind paws was measured using a caliper from day 16 till sacrifice by 2 independent observers (MAvM and JK) who were not aware of the treatment.
Hind paws were used for radiographic evaluation. Joint destruction was scored on a scale of 0–4, where 0 = no damage, 1 = demineralization, 2 = 1 or 2 erosions, 3 = severe erosions, and 4 = complete destruction of the joints. The radiographs were scored by 2 independent observers (MAvM and MJV) in a blinded manner; minor differences in scoring between the observers were resolved by mutual agreement.
Hind paws were fixed for 24 hours in 10% buffered formalin and decalcified in 15% EDTA. The paws were then embedded in paraffin, and serial 5 μm sagittal sections of whole hind paws were cut and stained with hematoxylin and eosin (HE). Two independent observers (MAvM and MJV) assessed the tissue for the degree of synovitis by microscopic evaluation, under blinded conditions, as described previously. Synovitis was graded on a scale of 0 (no inflammation) to 3 (severely inflamed joint) based on the extent of infiltration of inflammatory cells into the synovium.
To evaluate the effects of different treatments, we determined the change in clinical arthritis scores in each mouse from the start of treatment until the end of the experiment. AUC for the change in arthritis scores were calculated. The significance of the differences in the mean changes in scores (clinical, radiologic and histologic) between groups was determined by Kruskal-Wallis test followed by Mann-Whitney U test (SPSS version 12.0.2; SPSS, Chicago, IL). Incidence was compared using Kaplan-Meier survival analysis (GraphPad Prism). P values less than 0.05 were considered statistically significant.

Data set [2] is described as follows: pharmacokinetics in CD1 mice. Format: in vivo, mouse. To be noted: for Kp at 30 min: CD1, mouse, brain, read-out: Brain penetration; for Kp at 30 min / Brain penetration: relative to plasma level 30 min after 1 mg/kg IV; for bioavailability: read-out: %F (bioavailability). How it is done:
Pharmacokinetic studies were carried out at Cerep using non-cannulated, non-fasted CD1 mice (Charles River Laboratories, Wilmington, MA). PMP-311 or PMP-072 were formulated in phosphate buffered saline (PBS), pH 7.4, as a clear solution and 1 mg/kg was administered by bolus intravenous (IV) injection or 5 mg/kg by oral gavage. Plasma samples were obtained from 3 mice per time point at 15, 30, 60, 120, 240, 360, 480 and 1440 min post-dose. The plasma samples were processed using acetonitrile precipitation and analyzed by HPLC-MS or HPLC-MS/MS to determine the concentration of drug as compared to a plasma calibration curve (aliquots of drug-free plasma were spiked with the test compound at the specified concentration levels and processed together with the unknown plasma samples using the same procedure). The processed plasma samples were stored frozen (−20°C) until the HPLC-MS/MS analysis. Peak areas were recorded, and the concentrations of the test compound in the unknown plasma samples were determined using the respective calibration curve. The reportable linear range of the assay was determined, along with the lower limit of quantitation (LLQ).
Plots of plasma concentration of compound versus time were constructed. The fundamental pharmacokinetic parameters of compound after oral and IV dosing (Cmax: maximum concentration, Tmax: time to maximum concentration, T1/2: terminal elimination half-life, AUC: area under the curve, CI: clearance, Vd: volume of distribution, and %F: bioavailability) were obtained from the non-compartmental analysis of the plasma data using WinNonlin (Pharsight, St. Louis, MO).

The target of data set [3] is T1, α1β1 nAChR (muscle receptor) (Homo sapiens, UniProt P02708+P07510+P11230+Q07001).
T1 construct: host or cells: TE671 cell membranes
T1 sequence (P02708 21-457): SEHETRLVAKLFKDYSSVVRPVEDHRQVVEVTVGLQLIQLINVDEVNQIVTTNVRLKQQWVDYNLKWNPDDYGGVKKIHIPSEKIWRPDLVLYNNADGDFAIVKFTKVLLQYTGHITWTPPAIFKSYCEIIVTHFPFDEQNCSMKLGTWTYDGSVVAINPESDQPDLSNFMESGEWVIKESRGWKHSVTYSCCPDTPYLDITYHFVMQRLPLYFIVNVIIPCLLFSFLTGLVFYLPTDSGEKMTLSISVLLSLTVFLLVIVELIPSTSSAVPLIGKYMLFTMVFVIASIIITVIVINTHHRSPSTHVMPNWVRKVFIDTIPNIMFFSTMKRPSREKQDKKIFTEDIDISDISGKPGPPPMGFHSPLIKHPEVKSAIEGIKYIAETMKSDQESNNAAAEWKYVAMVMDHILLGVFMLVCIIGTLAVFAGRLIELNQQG
T1 sequence (Q07001 22-517): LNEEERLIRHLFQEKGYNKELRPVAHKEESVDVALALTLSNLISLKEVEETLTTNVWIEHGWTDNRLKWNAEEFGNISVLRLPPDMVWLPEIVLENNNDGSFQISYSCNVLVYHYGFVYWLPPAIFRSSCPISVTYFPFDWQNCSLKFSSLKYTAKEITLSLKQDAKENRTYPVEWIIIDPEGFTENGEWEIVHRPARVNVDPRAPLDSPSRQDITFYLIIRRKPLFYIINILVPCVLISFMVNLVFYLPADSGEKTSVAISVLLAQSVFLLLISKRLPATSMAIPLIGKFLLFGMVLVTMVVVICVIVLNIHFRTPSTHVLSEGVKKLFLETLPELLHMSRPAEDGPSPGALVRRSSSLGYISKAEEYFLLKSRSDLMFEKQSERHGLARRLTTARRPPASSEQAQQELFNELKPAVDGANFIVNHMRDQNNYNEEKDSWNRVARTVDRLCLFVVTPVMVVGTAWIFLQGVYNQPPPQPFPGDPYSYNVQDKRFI
T1 sequence (P07510 23-517): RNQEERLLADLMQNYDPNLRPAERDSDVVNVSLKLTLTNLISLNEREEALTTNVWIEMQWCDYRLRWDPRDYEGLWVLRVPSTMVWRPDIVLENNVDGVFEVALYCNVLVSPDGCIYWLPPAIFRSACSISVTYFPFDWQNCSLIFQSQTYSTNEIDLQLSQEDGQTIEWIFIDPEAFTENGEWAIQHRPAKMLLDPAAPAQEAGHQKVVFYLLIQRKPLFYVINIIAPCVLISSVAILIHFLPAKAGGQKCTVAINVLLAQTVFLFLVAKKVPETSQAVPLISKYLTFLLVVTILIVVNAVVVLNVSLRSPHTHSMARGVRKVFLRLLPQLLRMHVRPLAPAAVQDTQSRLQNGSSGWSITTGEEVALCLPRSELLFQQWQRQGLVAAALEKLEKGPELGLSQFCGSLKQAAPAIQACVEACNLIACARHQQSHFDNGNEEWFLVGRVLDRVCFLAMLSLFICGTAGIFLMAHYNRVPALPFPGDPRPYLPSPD
T1 sequence (P11230 24-501): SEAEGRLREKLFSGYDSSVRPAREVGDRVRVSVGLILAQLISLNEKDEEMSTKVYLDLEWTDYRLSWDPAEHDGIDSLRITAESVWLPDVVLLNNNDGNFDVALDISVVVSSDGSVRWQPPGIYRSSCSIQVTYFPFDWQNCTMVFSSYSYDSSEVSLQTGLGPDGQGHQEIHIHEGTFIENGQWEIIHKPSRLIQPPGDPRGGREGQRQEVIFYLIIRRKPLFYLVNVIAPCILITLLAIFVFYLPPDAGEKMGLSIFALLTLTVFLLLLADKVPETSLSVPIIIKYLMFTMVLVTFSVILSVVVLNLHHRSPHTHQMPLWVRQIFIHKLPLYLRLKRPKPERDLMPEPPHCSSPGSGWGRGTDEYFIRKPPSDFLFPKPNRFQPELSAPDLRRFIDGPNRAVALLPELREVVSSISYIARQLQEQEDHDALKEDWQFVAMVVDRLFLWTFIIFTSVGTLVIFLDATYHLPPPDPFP
Nature of the data set: α-bungarotoxin binding to TE671 cell membranes. The protocol: Broad selectivity was assessed at Cerep (Celle l’ Evescault, France), as described in the Cerep catalog, though the determination of the effect of PMP-311 and PMP-072 in in vitro radioligand receptor binding assays with 52 different receptors, channels, and transporters. The specific ligand binding to the receptors is defined as the difference between the total binding, and the nonspecific binding determined in the presence of an excess of unlabelled ligand. The results are expressed as a percent of control specific binding and as the mean percent inhibition of control specific binding obtained in the presence of 10 μM PMP-311 and PMP-072. Individual and mean values are presented in the results section. The IC50 values (concentration causing a half-maximal inhibition of control specific binding) and Hill coefficients (nH) were determined by non-linear regression as described above.

The mark [4] stands for this setting: study 1, 5 mg/kg oral daily day 20-34.
Where [5] appears, read: CD1, plasma, mouse, 5 mg/kg oral.

pKi: −log10 of the molar value. “And” between values parts separate entries of the source, which are not always exact repeats. Identical values can stand only once. “Also recorded” adds a separate entry of the source.

Regarding `COc1ccc(NC(=O)N2CCNC[C@@H]2COc2cccnc2)cc1` [PMP-072, (R)-N-(4-methoxyphenyl)-2-((pyridin-3-yloxy)methyl)piperazine-1-carboxamide], in data set [1] (5 mg/kg oral daily), the “effect on arthritis activity” value was “did not significantly ameliorate arthritis activity; also recorded: trend towards improvement” and the “joint destruction (radiographic score)” value is reported as “did not reduce bone degradation”. Also, in data set [1], the “disease incidence and onset” value is listed as “trend towards reduced incidence of disease”. In addition, in data set [1] (10 mg/kg oral daily), the “joint destruction (radiographic score)” value is recorded as “trend towards reduced joint destruction”, the paw swelling entry is recorded as “decrease in paw swelling”, the “reduction in arthritis score compared to saline” value (shortened to “reduction in arthritis score”) was found to be 48% and the “synovial inflammation (synovitis score)” value is on record as “significantly lower scores for synovitis”. The “effect on arthritis score” value in data set [1] (20 mg/kg oral daily) is “no improvement”. For the same molecule, in data set [1] (setting [4]), the tolerability of treatment entry is “tolerated the drug treatment well”. Also, in data set [1] (study 2, PMP-311 2 and 10 mg/kg, PMP-072 10 and 20 mg/kg), the tolerability of treatment entry is recorded as “tolerated the drug treatments well”. For the same molecule, in data set [2], the Kp at 30 min turned out to be 0.06 and the Brain penetration is given as 6%. In addition, in data set [2] (CD1, plasma, mouse, 1 mg/kg IV), the distribution volume (Vd) – broadly, a proportionality between amount in the body and measured concentration, not a real space – is 5.83 L/kg; the half-life (in general, the time needed for the level to fall by half in the phase considered) was 39 min. In data set [2] (setting [5]), the AUC – broadly, the area under the concentration-time curve, a measure of exposure – was 588 ng·h/mL; the Cmax (in general, the highest concentration seen after dosing) is 324 ng/mL and 940 nM; the time of peak concentration (Tmax) (commonly the time from dosing to the highest level) is 30 min; the bioavailability (as a rule, dose-corrected exposure relative to a reference, in per cent) stood at 76%. For the same molecule, in data set [2] (mouse, 1 mg/kg IV), the Cl is 103 mL/min/kg. For the same molecule, the T1/2 in data set [2] (mouse, 5 mg/kg oral) is 104 min. In addition, the pKi – broadly, the Ki on a negative log10 scale, so that one unit is a factor of ten – in data set [3] is under 4.00.

Turning to `c1cncc(OC[C@@H]2CNCCN2c2nc3ncccc3o2)c1` [PMP-311, (S)-2-(2-((Pyridin-3-yloxy)methyl)piperazin-1-yl)oxazolo[4,5-b]pyridine], in data set [1] (2 mg/kg oral daily), the “joint destruction (radiographic score)” value is given as “significant reduction in joint destruction”, the “mice that developed arthritis” value was 14 out of 15, the paw swelling result is on record as “decreased” and the “reduction in arthritis score” value amounted to 40%. In data set [1] (2 mg/kg oral daily), the synovial inflammation entry is reported as “significant reduction”. Moreover, in data set [1] (5 mg/kg oral daily), the “animals that did not develop arthritis” value is reported as “six out of 15”, the “effect on arthritis activity” value was “amelioration of clinical signs of arthritis”, the “joint destruction (radiographic score)” value is “significant reduction in joint destruction” and the “synovial inflammation (HE staining of knee joints)” value is “significant reduction of synovial inflammation”. For the same molecule, the “disease incidence and onset” value in data set [1] is “reduced disease incidence and delayed onset of disease”. Also, the “reduction in clinical score compared to saline” value in data set [1] (5 mg/kg oral daily, dose-response comparison) is 49%. Also, in data set [1] (10 mg/kg oral daily), the “joint destruction (radiographic score)” value is “significantly decreased” and the “reduction in arthritis score” value came out at 39%. Besides, in data set [1] (setting [4]), the “decrease in paw swelling compared to saline-treated mice” value worked out at 39% and the “decrease of AUC of clinical score compared to control mice” value was 51%. Besides, in data set [2], the Kp at 30 min stood at 0.44 and the Brain penetration was determined as 44%. For the same molecule, in data set [2] (CD1, plasma, mouse, 1 mg/kg IV), the Vd is 1.94 L/kg, the clearance (usually the volume of plasma or blood freed of the substance per unit of time) is 72 mL/min/kg and the half-life was found to be 19 min. Besides, in data set [2] (setting [5]), the area under the curve (AUC) was 567 ng·h/mL; the Cmax was 787 ng/mL and 2.5 µM; the Tmax is 15 min; the half-life worked out at 98 min. Moreover, in data set [2] (setting [5]), the bioavailability is 50%. Besides, the pKi in data set [3] was under 4.00.
